Measured values from patent publication US20250346587A1, “NITROGEN-CONTAINING FIVE-MEMBERED HETEROCYCLIC DERIVATIVES AS CHECKPOINT KINASE 1 INHIBITOR AND USES THEREOF” (SPEROGENIX THERAPEUTICS LIMITED, priority 2022, published 2025).
Converted amounts (≈) assume the structure as drawn.

Assays:
[1] = Microsomal stability assay, rat liver microsome; format: in vitro ADME; settings: liver microsomes, pH 7.4, 0.2 mg/mL, 1 μM compound, 37° C., read-out: Clint RLM
[2] = Microsomal stability assay, human liver microsome; format: in vitro ADME; settings: liver microsomes, pH 7.4, 0.2 mg/mL, 1 μM compound, 37° C., read-out: Clint HLM
physchem = settings: 37 °C, pH 7.4, aqueous buffer, kinetic from dmso stock
[3] = Microsomal stability assay, mouse liver microsome; format: in vitro ADME; settings: liver microsomes, pH 7.4, 0.2 mg/mL, 1 μM compound, 37° C., read-out: Clint MLM
CHK-1 kinase = CHK-1 kinase (Homo sapiens (Human), UniProt O14757); experiment: CHK-1 % inhibition kinase assay (TR-FRET); format: biochemical; settings: CHK1 enzyme, ATP 15 μM
Chain of CHK-1 kinase (O14757 whole entry): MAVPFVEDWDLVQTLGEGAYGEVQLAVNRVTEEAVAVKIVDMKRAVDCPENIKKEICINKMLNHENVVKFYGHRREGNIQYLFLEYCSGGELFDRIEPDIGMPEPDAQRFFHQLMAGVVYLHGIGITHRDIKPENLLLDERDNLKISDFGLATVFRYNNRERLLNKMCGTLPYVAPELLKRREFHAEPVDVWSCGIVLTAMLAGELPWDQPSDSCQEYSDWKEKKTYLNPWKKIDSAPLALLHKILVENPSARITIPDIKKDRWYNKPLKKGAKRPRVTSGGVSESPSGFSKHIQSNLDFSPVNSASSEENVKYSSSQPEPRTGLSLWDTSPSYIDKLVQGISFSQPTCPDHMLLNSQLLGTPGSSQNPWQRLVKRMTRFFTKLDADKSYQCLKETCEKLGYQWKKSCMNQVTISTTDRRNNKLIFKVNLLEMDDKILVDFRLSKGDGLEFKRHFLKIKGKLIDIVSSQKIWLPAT

COc1cc(C2=CCN(C)CC2)ccc1-c1cc(Nc2cnc(C#N)cn2)on1 [Compound 1.22, 5-(3-(2-methoxy-4-(1-methyl-1,2,3,6-tetrahydropyridin-4-yl)phenyl)isoxazol-5-ylamino) pyrazine-2-carbonitrile]
microsomal CLint at 1 μM [1]: 142 µL/min/mg | microsomal CLint at 1 μM [2]: 169 µL/min/mg | solubility kinetic at 1 h (physchem): 28.4 µM (≈ 11 µg/mL) | microsomal CLint at 1 μM [3]: 313 µL/min/mg | inhibition at 0.03 µM (CHK-1 kinase; compound 30 nM): 13.7% | inhibition at 0.3 µM (CHK-1 kinase; compound 300 nM): 11%
